Like-named read-outs stand apart in the source and are kept apart here. Some results are limits rather than exact numbers.

In one data set the target is T1, human recombinant AChE (Homo sapiens, UniProt P22303).
T1 construct: purchased Sigma-Aldrich, Prague, Czech Republic
The data set is described as follows: biochemical. It is filed as biochemical. To be noted: mean of at least three experiments. On the procedure:
(§1) Human recombinant AChE (EC 3.1.1.7), 5,5′-dithiobis(2-nitrobenzoic acid) (Ellman′s reagent, DTNB), phosphate buffer (PB, 0.1 M, pH 7.4), and acetylthiocholine (ATC) and butyrylthiocholine (BTC), were purchased from Sigma-Aldrich, Prague, Czech Republic. Human plasma was used as a source of BChE and was prepared from heparinized human blood. The blood was centrifuged for 20 min (4 °C, 2300× g) on a Hettich Universal 320R centrifuge. The plasma was separated and stored at […]. Polystyrene Nunc 96-well microplates with a flat bottom shape (ThermoFisher Scientific, Waltham, MA, USA) were used for measuring purposes.
(§2) All of the assays were carried out in a 0.1 M phosphate buffer, pH 7.4. The assay medium (100 µL) consisted of 40 µL of 0.1 M phosphate buffer (pH 7.4), 20 µL of 0.01 M DTNB, 10 µL of the enzyme, and 20 µL of 0.01 M substrate ATC/BTC iodide solution).
(§3) The tested compounds were preincubated for 5 min prior to use. The reaction was initiated immediately upon addition of 20 µL of the substrate. […] Each concentration was assayed in triplicate. Software GraphPad Prism 5 (San Diego, CA, USA) was used in the evaluation of the statistical data.

The target in the next data set is T2, hBChE (human plasma) (Homo sapiens, UniProt P06276).
T2 construct: Human plasma was used as a source of BChE; from tissue; host or cells: human plasma from heparinized blood
T2 sequence (P06276 29-602): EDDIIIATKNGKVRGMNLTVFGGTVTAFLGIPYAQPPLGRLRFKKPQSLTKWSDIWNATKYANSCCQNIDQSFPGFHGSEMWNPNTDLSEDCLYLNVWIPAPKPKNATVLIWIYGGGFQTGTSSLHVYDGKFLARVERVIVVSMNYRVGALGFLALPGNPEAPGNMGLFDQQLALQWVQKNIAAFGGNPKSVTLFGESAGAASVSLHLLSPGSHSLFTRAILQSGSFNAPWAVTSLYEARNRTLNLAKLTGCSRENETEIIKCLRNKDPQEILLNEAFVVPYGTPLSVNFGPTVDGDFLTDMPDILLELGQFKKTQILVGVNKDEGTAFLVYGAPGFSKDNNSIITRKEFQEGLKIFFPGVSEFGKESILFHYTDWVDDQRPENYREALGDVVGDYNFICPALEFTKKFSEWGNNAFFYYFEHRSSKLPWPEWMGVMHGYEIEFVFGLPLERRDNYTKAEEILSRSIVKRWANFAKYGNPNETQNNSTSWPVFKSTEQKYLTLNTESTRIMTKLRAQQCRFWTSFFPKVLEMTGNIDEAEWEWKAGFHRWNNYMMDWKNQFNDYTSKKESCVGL
The data set is described as follows: biochemical. It counts as biochemical. To be noted: human plasma BChE, mean of at least three experiments. On the procedure: as §1, §2, §3

The next data set has as its system A549 cells. The data set is described as follows: Apoptosis by cleaved PARP immunolabelling. It counts as cell-based, human. The conditions noted are these: A549, 24 h. On the procedure:
The studied biscoumarin derivatives were added to cells seeded on 12-well μ-Chamber slides for 24 h. After cultivation with the derivatives, the samples (both the control without the derivatives and experimental groups) were washed with a 0.1 M PBS solution buffer to remove all non-cell-absorbed derivative residues and fixed with 4% paraformaldehyde for 20 min at RT. Alternatively, cells were incubated with Mitotracker Red (0.5 µM; Thermo Fisher Scientific, Waltham, MA, USA) for 30 min at 37 °C, washed with 0.1 M PBS, and fixed with 4% paraformaldehyde for 20 min at RT. For the quantification of proliferative activity and programmed cell death, samples were incubated overnight at 4 °C with the mouse anti-Ki67 antibody (NCL-L-Ki67-MM1, 1:100, Leica Biosystems, Wetzlar, Germany) and rabbit anti-cleaved PARP (cat. no. 94885, 1:100, Cell Signaling, Danvers, MA, USA) diluted in 0.1 M PBS containing 1% normal donkey serum (Jackson Immunoresearch, Cambridgeshire, Great Britain) and 0.3% Triton-X 100. […]
All samples were evaluated using a Leica TCS SP5X confocal system (Leica Microsystems, Mannheim, Germany). The biscoumarin derivatives were visualized in cells using a 405 nm laser, and the fluorescence was captured in the range of 420–480 nm with identical exposure parameters for all samples. […]

Another data set concerns CCD-18Co fibroblasts. Briefly: MTT assay, CCD-18Co. It counts as cell-based. To be noted: for IC50: Homo sapiens, CCD-18Co. On the procedure:
Human lung carcinoma cell line A549 and CCD-18Co colon fibroblasts were purchased from the American Type Culture Collection (ATCC, Rockville, MD, USA). The A549 cells were cultured in a complete RPMI-1640 medium (Sigma-Aldrich, St. Louis, MO, USA), and CCD-18Co cells were cultured in an MEM medium (PAN-Biotech GmbH, Aidenbach, Germany). The media were supplemented with 10% fetal bovine serum (FBS; Biosera, Nuaille, France) and antibiotics (1% Antibiotic-Antimycotic 100× and 50 × 10^−3 g l^−1 gentamicin; Biosera) at 37 °C, 95% humidity, and 5% CO2.
Prior to the selected treatments, cells were seeded on 12-well μ-Chamber slides (ibidi GmbH, Martinsried, Germany) and 6 and/or 96-well plates (TPP, Trasadingen, Switzerland) and left to settle for 24 h. The biscoumarin derivative solutions (at concentrations ranging from 10–100 µM) were then added to cells for 24 or 48 h, and analysis was subsequently performed.
MTT assays were performed in order to evaluate changes in the metabolic activity of cells that had occurred as a consequence of treatment with the biscoumarin derivatives. A549 cells (15 × 10^3 cells/cm^2) and CCD-18Co ([…]) were seeded in 96-well microplates. The cells were treated for 24 and 48 h with different concentrations (10, 25, 35, 50, 65, 75, and 100 µM) of the derivatives. After the treatment, the MTT (3-(4,5-dimethylthiazol-2-yl)-2,5-diphenyltertrazolium bromide) solution in PBS (5 mg mL^−1) was added to each well. […]. The absorbance of formazan (λ = 584 nm) was measured using a BMG FLUOstar Optima spectrometer (BMG Labtech GmbH, Offenburg, Germany). The results were evaluated as percentages of the absorbance of the untreated control. Results are presented as the average percentage of cells from three independent experiments. IC50 values for the derivatives were extrapolated from a sigmoidal fit (dose–response curve) to the metabolic activity data using OriginPro 8.5.0 SR1 (OriginLab Corp., Northampton, MA, USA).
(In general: Formazan colour is commonly taken as a measure of viable cells.)

T1 sequence (P22303 32-614): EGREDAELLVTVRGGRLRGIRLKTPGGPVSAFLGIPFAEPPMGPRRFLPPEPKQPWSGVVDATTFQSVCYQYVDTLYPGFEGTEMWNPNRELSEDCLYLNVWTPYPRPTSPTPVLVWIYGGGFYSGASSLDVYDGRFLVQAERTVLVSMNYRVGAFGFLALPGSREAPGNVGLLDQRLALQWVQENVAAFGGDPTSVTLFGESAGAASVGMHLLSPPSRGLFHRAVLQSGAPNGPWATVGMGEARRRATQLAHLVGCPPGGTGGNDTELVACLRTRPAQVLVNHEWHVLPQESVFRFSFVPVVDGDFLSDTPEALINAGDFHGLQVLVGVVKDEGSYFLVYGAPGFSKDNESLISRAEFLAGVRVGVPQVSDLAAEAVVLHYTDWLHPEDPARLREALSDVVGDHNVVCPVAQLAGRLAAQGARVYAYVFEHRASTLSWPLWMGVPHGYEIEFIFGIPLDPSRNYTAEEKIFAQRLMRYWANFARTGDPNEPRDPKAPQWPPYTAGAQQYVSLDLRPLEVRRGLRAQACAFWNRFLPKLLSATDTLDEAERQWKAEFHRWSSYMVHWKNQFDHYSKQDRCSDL

By IC50 is commonly meant the concentration at which inhibition is half-maximal. With `COC(=O)Cc1cc(=O)oc2cc(OCCCCCCCCN3CCN(CCNC(=O)Cc4cc(=O)oc5cc(O)ccc45)CC3)ccc12` [12e, Methyl 2-[7-({2-[4-(2-{[2-(7-hydroxy-2-oxo-2H-4-chromenyl)acetyl]amino}etyl)piperazino]oktyl}oxy)-2-oxo-2H-4-chromenyl]acetate], the “IC50 ± S.E.M. hAChE” value at human recombinant AChE is “did not show inhibitory activity”. Also, the IC50 was > 500 µM on human recombinant AChE (read-out: IC50 ± S.E.M. hAChE); > 500 µM at hBChE (human plasma) (read-out: IC50 ± S.E.M. hBChE); > 100 µM in the data set on CCD-18Co fibroblasts (24 h, read-out: IC50 CCD-18Co 24 h); > 100 µM with CCD-18Co fibroblasts (read-out: IC50 CCD-18Co 48 h, 48 h); > 100 µM in the data set with CCD-18Co fibroblasts (time not stated, read-out: IC50 CCD-18Co). In addition, the “IC50 ± S.E.M. hBChE” value on hBChE (human plasma) is on record as “did not show inhibitory activity”. Also, the “Apoptotic cells (cleaved PARP)” value with A549 cells is recorded as ≤ 0.001%. In addition, in the data set on CCD-18Co fibroblasts (24 or 48 h), the “Metabolic activity of CCD-18Co cells (in words)” value is reported as “significantly reduced metabolic activity”.
